For assay [1], the system named is HER2-positive SK-BR-3 cells. Description: In vitro cell viability assay (Cell-Titer Glo Luminescence), HER2-positive cells. The assay is classed as cell-based. Particulars: 96 h incubation, 40-0.018 nM, 2-fold dilutions, viability as % of untreated cells. On the procedure: (§1) The in vitro efficacy of the antibody and Fab conjugates prepared in Examples 3 and 4 respectively were determined by measuring the inhibitory effect on cell growth of HER-2 receptor over-expressing cancer cell lines.
(§2) Loss of tumour cell viability following treatment with cytotoxic drugs or ADCs in vitro can be measured by growing cell lines in the presence of increasing concentrations of drugs or ADCs and quantifying the loss of proliferation or metabolic activity using Cell-Titer Glo® Luminescence reagent (Promega Corp. Technical Bullettin TB288; Lewis Phillips G. D, Cancer Res 2008; 68:9280-9290). […]
(§3) HER2-positive SK-BR-3 and HER2-negative MCF-7 cells were trypsinised with 3 mL Trypsin EDTA for 5-15 min. […] Cells were counted using a Neubauer haemocytometer and adjusted to a cell density of 3×10^4/mL for MCF-7 and 5×10^4/mL for SK-BR-3 respectively. […]
(§4) The cell viability assay was carried out using the Cell-Titer Glo® Luminescence reagent, as described by the manufacturer's instructions, (Promega Corp. Technical Bulletin TB288; Lewis Phillips G. D, Cancer Res 2008; 68:9280-9290). […]
(§5) Luminescence was recorded using a plate reader (e.g. MD SpectramaxM3 plate reader), and data subsequently analysed using a four parameter non-linear regression model.
(§6) Viability is expressed as % of untreated cells. […]

The subject of assay [2] is HER2-negative MCF-7 cells. The assay can be described thus: In vitro cell viability assay (Cell-Titer Glo Luminescence), HER2-negative cells. Type of assay: cell-based. The following applies: 96 h incubation, 200-0.1 nM free AHX-DM1, 3 fold dilutions. On the procedure: as §1, §2, §3, §4, §5, §6

The record followed here is US20150283259A1, “DRUG-PROTEIN CONJUGATES” (priority 2012, published 2015).

Consider `COc1cc2cc(c1Cl)N(C)C(=O)C[C@H](OC(=O)[C@H](C)N(C)C(=O)CCCCCN)[C@]1(C)O[C@H]1[C@H](C)[C@@H]1C[C@@](O)(NC(=O)O1)[C@H](OC)/C=C/C=C(\C)C2` [AHX-DM1], for which the IC50 in assay [1] is 3.4 nM; in assay [2], 36.3 nM.

In general, IC50 refers to the concentration that inhibits the measured activity by half. High values mean weaker potency, low ones greater potency.
